Results as given in EP4578939A1, “MYC[…]. BASED ON VARIOUS CARBON-NITROGEN METABOLIC […], METHOD FOR ISOLATING SAME, AND USE THEREOF” (Peng, Guanghao, priority 2022, dated 2024).
Where a name gives a salt, the structure may show the parent alone. Read-outs that look alike come from different tables or passages of the source.

System: strain YT
Assay: inhibition of nitrification inhibitors on nitrification activity and growth
Type: cell-based, Mycobacterium sp.
Settings: for inhibition at 5000 µM: Mycobacterium; for effect on growth of strain YT: pure culture with two nitrogen sources; for effect on nitrification activity of strain YT: pure culture; for inhibition rate on nitrification activity: over the 35 days of culture
Method: The nitrogen contents of the two nitrogen sources were equal in a modified Stephenson medium with (NH4)2SO4 as a nitrogen source (NH4)2SO4 content was 2.0g/L) and a modified Stephenson medium with L-arginine hydrochloride (C6H14N4O2•HCl) as a nitrogen source (C6H14N4O2•HCl content was 1.6 g/L).
When sodium pyruvate was added as a carbon source in the design of a culture medium, 1.0M sodium pyruvate solution (the concentration was calculated in terms of pyruvic acid) was prepared firstly, the pH was adjusted to the range of 7.0-7.2, and the solution was sterilized separately for later use. Before use, 1ml of 1.0M sodium pyruvate solution was added to about 100ml of modified Stevenson culture medium with (NH4)2SO4 as a nitrogen source or L-arginine hydrochloride (C6H14N4O2•HCl) as a nitrogen source, and the pyruvic acid concentration of the culture system was designed to be 0.01M.
Four kinds of nitrification inhibitors 4-amino-1,2,4-triazole (ATC), dicyandiamide (DCD, C2H4N4), aminoguanidine hydrochloride (CH6N4•HCl), and guanylthiourea (C2H6N4S) were selected. The four nitrification inhibitors were prepared with a concentration of 500mM, respectively, after the solutions were filtered and sterilized, 1ml of the four nitrification inhibitors with a concentration of 500mM was added into the two medium with different nitrogen sources, such that the corresponding concentration of each of the nitrification inhibitors in the systems was 5 mM.
Two mediums with different nitrogen sources were respectively subjected to 5 treatments, namely without addition of an inhibitor, adding ATC, adding DCD, adding aminoguanidine hydrochloride, and adding guanylthiourea as shown in the table below; the YT system without addition of an inhibitor and the system without inoculation of strain YT and only addition of an inhibitor were respectively used as a control group; 1ml of PBS-YT bacterial liquid was inoculated, and 1ml of sterile water was used as a substitute when the inoculation of a bacterial strain was not performed. The total volume of each culture system was equal, it was about 100 ml.
1.5 Culture conditions: the culture was performed in a shaking table with a rotational speed of 180rpm at 28°C.
1.6 Measurement and calculation of indicator: the growth OD600 and pH value of thallus in the culture solution were measured every week, the contents of NH4^+-N, NO2^--N and NOx^--N were measured, the inhibition effect of the nitric oxide synthase (nitrification) activity of different culture systems were calculated and compared.
Nitric oxide synthase (nitrification) inhibition rate (%) = (NO2^--NYT concentration - NO2^--Nculture system added with an inhibitor concentration) ×100/ NO2^--NYT concentration

[1] = 504 h, strain YT, Ammonium sulfate, inhibitor 5 mM, Culture 21 days, read-out: Nitric oxide synthase (nitrification) activity inhibition rate (%)
[2] = 504 h, strain YT, L-arginine hydrochloride, inhibitor 5 mM, Culture 21 days, read-out: Nitric oxide synthase (nitrification) activity inhibition rate (%)
[3] = 672 h, strain YT, Ammonium sulfate, inhibitor 5 mM, Culture 28 days, read-out: Nitric oxide synthase (nitrification) activity inhibition rate (%)
[4] = 672 h, strain YT, L-arginine hydrochloride, inhibitor 5 mM, Culture 28 days, read-out: Nitric oxide synthase (nitrification) activity inhibition rate (%)
[5] = strain YT, Ammonium sulfate, inhibitor 5 mM, Culture 7 days (Table 13d), read-out: Nitric oxide synthase (nitrification) activity inhibition rate (%)
[6] = strain YT, Ammonium sulfate, inhibitor 5 mM, Culture 14 days (Table 13d), read-out: Nitric oxide synthase (nitrification) activity inhibition rate (%)
[7] = strain YT, Ammonium sulfate, inhibitor 5 mM, Culture 35 days, read-out: Nitric oxide synthase (nitrification) activity inhibition rate (%)
[8] = strain YT, L-arginine hydrochloride, inhibitor 5 mM, Culture 14 days (Table 13d), read-out: Nitric oxide synthase (nitrification) activity inhibition rate (%)
[9] = strain YT, L-arginine hydrochloride, inhibitor 5 mM, Culture 35 days, read-out: Nitric oxide synthase (nitrification) activity inhibition rate (%)
[10] = strain YT, L-arginine hydrochloride as nitrogen source, inhibitor 5 mM, 7 days
[11] = strain YT, L-arginine hydrochloride as nitrogen source, inhibitor 5 mM, 14 days
[12] = strain YT, L-arginine hydrochloride as nitrogen source, inhibitor 5 mM, 21 days
[13] = strain YT, L-arginine hydrochloride as nitrogen source, inhibitor 5 mM, 28 days
[14] = strain YT, L-arginine hydrochloride as nitrogen source, inhibitor 5 mM, 35 days
[15] = strain YT, ammonium sulfate as nitrogen source, inhibitor 5 mM, 7 days
[16] = strain YT, ammonium sulfate as nitrogen source, inhibitor 5 mM, 14 days
[17] = strain YT, ammonium sulfate as nitrogen source, inhibitor 5 mM, 21 days
[18] = strain YT, ammonium sulfate as nitrogen source, inhibitor 5 mM, 28 days
[19] = strain YT, ammonium sulfate as nitrogen source, inhibitor 5 mM, 35 days
[20] = 168 h, strain YT, L-arginine hydrochloride, inhibitor 5 mM, Culture 7 days (Table 13e), read-out: Nitric oxide synthase (nitrification) activity inhibition rate (%)
[21] = 336 h, strain YT, L-arginine hydrochloride, inhibitor 5 mM, Culture 14 days (Table 13e), read-out: Nitric oxide synthase (nitrification) activity inhibition rate (%)
[22] = 480 h, strain YT, L-arginine hydrochloride, inhibitor 5 mM, Culture 20 days, read-out: Nitric oxide synthase (nitrification) activity inhibition rate (%)
[23] = strain YT, L-arginine hydrochloride, inhibitor 5 mM, Culture 31 days, read-out: Nitric oxide synthase (nitrification) activity inhibition rate (%)
[24] = strain YT, L-arginine hydrochloride as nitrogen source, inhibitor 5 mM, 7 days (Table 13c)
[25] = strain YT, L-arginine hydrochloride as nitrogen source, inhibitor 5 mM, 14 days (Table 13c)
[26] = strain YT, L-arginine hydrochloride as nitrogen source, inhibitor 5 mM, 20 days
[27] = strain YT, L-arginine hydrochloride as nitrogen source, inhibitor 5 mM, 31 days
[28] = strain YT, ammonium sulfate as nitrogen source, inhibitor 5 mM, 7 days (Table 13c)
[29] = strain YT, ammonium sulfate as nitrogen source, inhibitor 5 mM, 14 days (Table 13c)
[30] = strain YT, ammonium sulfate as nitrogen source, inhibitor 5 mM, 20 days
[31] = strain YT, ammonium sulfate as nitrogen source, inhibitor 5 mM, 31 days

SMILES: N=C(N)NC(N)=S [Amidinothiourea, guanylthiourea]
- inhibition at 5000 µM [1]: 59.8%
- inhibition at 5000 µM [2]: 72.7%
- inhibition at 5000 µM [3]: 33.5%
- inhibition at 5000 µM [4]: 77.4%
- inhibition at 5000 µM [5]: 95.6%
- inhibition at 5000 µM [6]: 94.8%
- inhibition at 5000 µM [7]: 11%
- inhibition at 5000 µM [8]: 98.3%
- inhibition at 5000 µM [9]: 72%
- effect on growth of strain YT (inhibitor 5 mM): can obviously inhibit the growth
- effect on nitrification activity of strain YT (inhibitor 5 mM): also exhibited inhibitory effect
- Nitric oxide synthase (nitrification) activity inhibition rate (%) (strain YT, Ammonium sulfate, inhibitor 5 mM, Culture 35 days): 11.07%
- NH4^+-N [10]: 8.13 mg/L
- NO2^--N [10]: 0 mg/L
- NH4^+-N [11]: 175.90 mg/L
- NO2^--N [11]: 1.72 mg/L
- NH4^+-N [12]: 154.73 mg/L
- NO2^--N [12]: 31.10 mg/L
- NH4^+-N [13]: 138.43 mg/L
- NO2^--N [13]: 25.70 mg/L
- NH4^+-N [14]: 165.02 mg/L
- NO2^--N [14]: 32.26 mg/L
- Nitric oxide synthase (nitrification) activity inhibition rate (%) (strain YT, L-arginine hydrochloride, inhibitor 5 mM, Culture 35 days): 71.62%
- NH4^+-N [15]: 395.07 mg/L
- NO2^--N [15]: 0.02 mg/L
- NH4^+-N [16]: 418.86 mg/L
- NO2^--N [16]: 0.13 mg/L
- NH4^+-N [17]: 407.33 mg/L
- NO2^--N [17]: 1.64 mg/L
- NH4^+-N [18]: 419.92 mg/L
- NO2^--N [18]: 4.57 mg/L
- NH4^+-N [19]: 422.98 mg/L
- NO2^--N [19]: 6.12 mg/L
- inhibition rate on nitric oxide synthase (nitrification) activities (strain YT, two nitrogen sources, before 14 days of culture): ≥ 95%

SMILES: N=C(N)NN [Aminoguanidine hydrochloride, aminoguanidine hydrochloride]
- inhibition at 5000 µM [1]: 99.4%
- inhibition at 5000 µM [2]: 99.8%
- inhibition at 5000 µM [3]: 97.2%
- inhibition at 5000 µM [4]: 99.5%
- inhibition at 5000 µM [5]: 99.2%
- inhibition at 5000 µM [6]: 99.7%
- inhibition at 5000 µM [7]: 98%
- inhibition at 5000 µM [8]: 99.8%
- inhibition at 5000 µM [9]: 99.1%
- effect on growth of strain YT (inhibitor 5 mM): can inhibit the growth
- effect on nitrification activity of strain YT (inhibitor 5 mM): had an inhibitory effect
- NH4^+-N [10]: 12.86 mg/L
- NO2^--N [10]: 0 mg/L
- NH4^+-N [11]: 38.07 mg/L
- NO2^--N [11]: 0.24 mg/L
- NH4^+-N [12]: 100.12 mg/L
- NO2^--N [12]: 0.28 mg/L
- NH4^+-N [13]: 145.55 mg/L
- NO2^--N [13]: 0.58 mg/L
- NH4^+-N [14]: 58.70 mg/L
- NO2^--N [14]: 1.00 mg/L
- inhibition rate on nitrification activity (strain YT, L-arginine hydrochloride as nitrogen source): ≥ 99%
- NH4^+-N [15]: 418.92 mg/L
- NO2^--N [15]: 0 mg/L
- NH4^+-N [16]: 419.06 mg/L
- NO2^--N [16]: 0.01 mg/L
- NH4^+-N [17]: 438.98 mg/L
- NO2^--N [17]: 0.03 mg/L
- NH4^+-N [18]: 448.65 mg/L
- NO2^--N [18]: 0.19 mg/L
- NH4^+-N [19]: 468.07 mg/L
- NO2^--N [19]: 0.14 mg/L
- inhibition rate on nitrification activity (strain YT, ammonium sulfate as nitrogen source): more than 97%

SMILES: Nn1cnnc1 [ATC, 4-amino-1,2,4-triazole]
- inhibition at 5000 µM (168 h, read-out: Nitric oxide synthase (nitrification) activity inhibition rate (%), strain YT, Ammonium sulfate, inhibitor 5 mM, Culture 7 days (Table 13e)): 100%
- inhibition at 5000 µM [20]: 100%
- inhibition at 5000 µM (336 h, read-out: Nitric oxide synthase (nitrification) activity inhibition rate (%), strain YT, Ammonium sulfate, inhibitor 5 mM, Culture 14 days (Table 13e)): 80%
- inhibition at 5000 µM [21]: 98.6%
- inhibition at 5000 µM (480 h, read-out: Nitric oxide synthase (nitrification) activity inhibition rate (%), strain YT, Ammonium sulfate, inhibitor 5 mM, Culture 20 days): 89.4%
- inhibition at 5000 µM [22]: 99.8%
- inhibition at 5000 µM (read-out: Nitric oxide synthase (nitrification) activity inhibition rate (%), strain YT, Ammonium sulfate, inhibitor 5 mM, Culture 31 days): 25.4%
- inhibition at 5000 µM [23]: 99.8%
- effect on growth of strain YT (inhibitor 5 mM): did not inhibit the growth
- effect on nitrification activity of strain YT (inhibitor 5 mM): always exhibited the inhibiting effect
- NH4^+-N [24]: 15
- NO2^--N [24]: 0
- OD600 [24]: 0.403
- NH4^+-N [25]: 89
- NO2^--N [25]: 0.5
- OD600 [25]: 0.394
- NH4^+-N [26]: 130
- NO2^--N [26]: 0.37
- OD600 [26]: 0.329
- NH4^+-N [27]: 111
- NO2^--N [27]: 0.33
- OD600 [27]: 0.252
- NH4^+-N [28]: 419
- NO2^--N [28]: 0
- OD600 [28]: 0.214
- NH4^+-N [29]: 410
- NO2^--N [29]: 0.50
- OD600 [29]: 0.127
- NH4^+-N [30]: 366
- NO2^--N [30]: 0.5
- OD600 [30]: 0.133
- NH4^+-N [31]: 382
- NO2^--N [31]: 1.17
- OD600 [31]: 0.146

SMILES: N#CN=C(N)N [DCD, dicyandiamide]
- inhibition at 5000 µM (168 h, strain YT, Ammonium sulfate, inhibitor 5 mM, Culture 7 days (Table 13e), read-out: Nitric oxide synthase (nitrification) activity inhibition rate (%)): 0%
- inhibition at 5000 µM [20]: 0%
- inhibition at 5000 µM (336 h, strain YT, Ammonium sulfate, inhibitor 5 mM, Culture 14 days (Table 13e), read-out: Nitric oxide synthase (nitrification) activity inhibition rate (%)): 0%
- inhibition at 5000 µM [21]: 7.14%
- inhibition at 5000 µM (480 h, strain YT, Ammonium sulfate, inhibitor 5 mM, Culture 20 days, read-out: Nitric oxide synthase (nitrification) activity inhibition rate (%)): 32.4%
- inhibition at 5000 µM [22]: 0.72%
- inhibition at 5000 µM (strain YT, Ammonium sulfate, inhibitor 5 mM, Culture 31 days, read-out: Nitric oxide synthase (nitrification) activity inhibition rate (%)): 8.62%
- inhibition at 5000 µM [23]: 0%
- effect on growth of strain YT (inhibitor 5 mM): did not inhibit the growth
- effect on nitrification activity of strain YT (inhibitor 5 mM): did not impose an inhibitory effect
- NH4^+-N [24]: 18
- NO2^--N [24]: 0.50
- OD600 [24]: 0.397
- NH4^+-N [25]: 121
- NO2^--N [25]: 32.5
- OD600 [25]: 0.438
- NH4^+-N [26]: 191
- NO2^--N [26]: 152.77
- OD600 [26]: 0.415
- NH4^+-N [27]: 173
- NO2^--N [27]: 153.87
- OD600 [27]: 0.378
- NH4^+-N [28]: 421
- NO2^--N [28]: 1.00
- OD600 [28]: 0.207
- NH4^+-N [29]: 408
- NO2^--N [29]: 2.50
- OD600 [29]: 0.121
- NH4^+-N [30]: 355
- NO2^--N [30]: 3.20
- OD600 [30]: 0.127
- NH4^+-N [31]: 382
- NO2^--N [31]: 5.11
- OD600 [31]: 0.128
